Source: patent publication US9096560B2, “5-heterocyclylalkyl-3-hydroxy-2-phenylcyclopent-2-enones as herbicides” (Syngenta Limited, priority 2008, dated 2015)

Legend:
Assay type in all cases: in vivo
Lolium perenne (LOLPE) [1] = experiment: Example B post-emergence herbicidal test, LOLPE; settings: Lolium perenne, 312 h, rate 250 g/ha, evaluated after 13 days, scale 0-100, read-out: Post-emergence activity LOLPE (100=total damage to plant; 0=no damage to plant)
How it was run: (§1)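 Plants grown 8 days in glasshouse (24/16 °C day/night, 14 h light, 65% humidity), then sprayed with aqueous solution from acetone/water (50:50) formulation with 0.5% Tween 20. Damage scored 13 days later on a 0–100 scale (100 = total damage).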

Avena fatua (AVEFA) [2] = experiment: Example B pre-emergence herbicidal test, AVEFA; settings: Avena fatua, 312 h, rate 250 g/ha, evaluated after 13 days, 100=total damage to plant, 0=no damage to plant
How it was run: (§2)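 After sowing in standard soil, pots spent a day in the glasshouse (24/16° C, 14 h photoperiod, 65% humidity) before spraying with compound in acetone/water 50:50 with 0.5% Tween 20. Watering followed twice a day, and plants were evaluated 13 days on, with 100 meaning complete damage.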

Lolium perenne (LOLPE) [3] = experiment: Example B pre-emergence herbicidal test, LOLPE; settings: Lolium perenne, 312 h, rate 250 g/ha, evaluated after 13 days, 100=total damage to plant, 0=no damage to plant
How it was run: as §2

[4] = test system: Alopecurus myosuroides (ALOMY); experiment: Example B pre-emergence herbicidal test, ALOMY; settings: Alopecurus myosuroides, 312 h, rate 250 g/ha, evaluated after 13 days, 100=total damage to plant, 0=no damage to plant
How it was run: as §2

Avena fatua (AVEFA) [5] = experiment: Example B post-emergence herbicidal test, AVEFA; settings: Avena fatua, 312 h, rate 250 g/ha, evaluated after 13 days, scale 0-100, read-out: Post-emergence activity AVEFA (100=total damage to plant; 0=no damage to plant)
How it was run: as §1

[6] = test system: Echinochloa crus-galli (ECHCG); experiment: Example B pre-emergence herbicidal test, ECHCG; settings: Echinochloa crus-galli, 312 h, rate 250 g/ha, evaluated after 13 days, 100=total damage to plant, 0=no damage to plant
How it was run: as §2

[7] = test system: Echinochloa crus-galli (ECHCG); experiment: Example B post-emergence herbicidal test, ECHCG; settings: Echinochloa crus-galli, 312 h, rate 250 g/ha, evaluated after 13 days, scale 0-100, read-out: Post-emergence activity ECHCG (100=total damage to plant; 0=no damage to plant)
How it was run: as §1

[8] = test system: Alopecurus myosuroides (ALOMY); experiment: Example B post-emergence herbicidal test, ALOMY; settings: Alopecurus myosuroides, 312 h, rate 250 g/ha, evaluated after 13 days, scale 0-100, read-out: Post-emergence activity ALOMY (100=total damage to plant; 0=no damage to plant)
How it was run: as §1

Row | Compound | pest or weed control at 250 g/ha (Lolium perenne (LOLPE) [1]) | pest or weed control at 250 g/ha (Avena fatua (AVEFA) [2]) | pest or weed control at 250 g/ha (Lolium perenne (LOLPE) [3]) | pest or weed control at 250 g/ha [4] | pest or weed control at 250 g/ha (Avena fatua (AVEFA) [5]) | pest or weed control at 250 g/ha [6] | pest or weed control at 250 g/ha [7] | pest or weed control at 250 g/ha [8]
1 | Cc1cc(-c2ccc(Cl)cc2F)cc(C)c1C1C(=O)C/C(=C\C2CCOC2)C1=O (stereo not drawn) [Compound T135] | 70% | 30% | 40% | 0% | 80% | 60% | 90% | 80%
2 | Cc1cc(Br)cc(C)c1C1C(=O)CC(CC2CCOCC2)C1=O (stereo not drawn) [Compound T138] | 90% | 70% | 90% | 80% | 90% | 90% | 70% | 90%
3 | Cc1cc(-c2ccccc2F)cc(C)c1C1C(=O)CC(CC2CCOCC2)C1=O (stereo not drawn) [Compound T139] | 90% | 60% | 80% | 70% | 90% | 90% | 100% | 90%
4 | Cc1cc(-c2ccccc2F)cc(C)c1C1C(=O)CC(CC2CCOC2)C1=O (stereo not drawn) [Compound T140] | 90% | 50% | 70% | 60% | 60% | 90% | 90% | 90%
5 | Cc1cc(C)c(C2C(=O)CC(CC3CCN(C(=O)C4CC4)C3)C2=O)c(C)c1 (stereo not drawn) [Compound T141] | 70% | 80% | 80% | 80% | 90% | 80% | 60% | 80%
6 | Cc1cc(C)c(C2C(=O)CC(CC3CCN(C(=O)C(C)C)C3)C2=O)c(C)c1 (stereo not drawn) [Compound T142] | 70% | 80% | 70% | 90% | 90% | 90% | 60% | 90%
7 | Cc1cc(C)c(C2C(=O)CC(CC3CCN(C(=O)C(C)(C)C)C3)C2=O)c(C)c1 (stereo not drawn) [Compound T143] | 60% | 50% | 100% | 80% | 80% | 100% | 60% | 60%
8 | CC(C)=CC(=O)N1CCC(CC2CC(=O)C(c3c(C)cc(C)cc3C)C2=O)C1 (stereo not drawn) [Compound T144] | 80% | 70% | 70% | 80% | 90% | 90% | 80% | 80%
9 | Cc1cc(C)c(C2C(=O)CC(CC3CCN(C(=O)C(C)(C)CCl)C3)C2=O)c(C)c1 (stereo not drawn) [Compound T145] | 40% | 30% | 50% | 60% | 50% | 20% | 30% | 60%
10 | Cc1cc(C)c(C2C(=O)CC(CC3CCN(C(=O)c4cccs4)C3)C2=O)c(C)c1 (stereo not drawn) [Compound T146] | 80% | 50% | 90% | 70% | 90% | 70% | 70% | 80%
11 | Cc1cc(C)c(C2C(=O)CC(CC3CCN(C(=O)c4ccco4)C3)C2=O)c(C)c1 (stereo not drawn) [Compound T147] | 40% | 10% | 30% | 50% | 70% | 40% | 50% | 60%
12 | Cc1cc(C)c(C2C(=O)CC(CC3CCN(C(=O)c4c(C)noc4C)C3)C2=O)c(C)c1 (stereo not drawn) [Compound T148] | 70% | 40% | 50% | 70% | 100% | 30% | 60% | 80%
13 | COc1ccc(CC2C(=O)C(c3c(C)cc(C)cc3C)C(=O)C2CC2CCOC2)cc1 (stereo not drawn) [Compound T149] | 40% | 10% | 20% | 30% | 40% | 30% | 20% | 30%
14 | Cc1cc(C)c(C2C(=O)C(Cc3ccccc3)C(CC3CCOC3)C2=O)c(C)c1 (stereo not drawn) [Compound T151] | 20% | 10% | 30% | 20% | 10% | 40% | 40% | 30%
15 | Cc1cc(C)c(C2C(=O)CC(CC3CCOC3C)C2=O)c(C)c1 (stereo not drawn) [Compound T156] | 100% | 70% | 100% | 80% | 90% | 100% | 70% | 90%
16 | Cc1cc(-c2ccc(C(F)(F)F)cc2)cc(C)c1C1C(=O)CC(CC2CCOC2)C1=O (stereo not drawn) [Compound T157] | 30% | 0% | 10% | 10% | 50% | 40% | 60% | 30%
17 | Cc1cc(-c2ccc(F)cc2)cc(C)c1C1C(=O)CC(CC2CCOC2)C1=O (stereo not drawn) [Compound T158] | 100% | 70% | 90% | 80% | 100% | 100% | 100% | 100%
18 | Cc1cc(-c2ccccc2)cc(C)c1C1C(=O)CC(CC2CCOC2)C1=O (stereo not drawn) [Compound T159] | 100% | 30% | 70% | 50% | 90% | 100% | 100% | 90%
19 | Cc1cc(Br)cc(C)c1C1C(=O)CC(CC2CCOC2)C1=O (stereo not drawn) [Compound T160] | 100% | 40% | 90% | 30% | 60% | 70% | 70% | 40%
20 | Cc1cc(C)c(C2C(=O)CC(CC3CCN(C(=O)C(F)(F)C(F)F)CC3)C2=O)c(C)c1 (stereo not drawn) [Compound T161] | 100% | 60% | 90% | 30% | 90% | 100% | 90% | 70%
21 | Cc1cc(C)c(C2C(=O)CC(CC3CCN(C(=O)C(F)(F)F)C3)C2=O)c(C)c1 (stereo not drawn) [Compound T162] | 90% | 50% | 70% | 40% | 80% | 50% | 70% | 60%
